This note sets out measurements from ChEMBL document CHEMBL1201862, “PubChem BioAssay data set” (2004).

Each structure is given as a SMILES string.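 48-hour exposure; five concentrations; linearly interpolated endpoints. At the GI50, growth is halved.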 The source made the active and inactive calls. Rule as the data show it: active = GI50 up to about 1.1 µM and inactive = higher. Bounds are passed on as bounds.

Common to all, as to assay: NCI anticancer screen, dose series, 48 h
The test system of assay [1] is A498.
In assay [2] the test system is A549.
For assay [3], the system named is CAKI-1.
In assay [4] the test system is CCRF-CEM.
Assay [5] relates to EKVX.
Assay [6] relates to HCT-15.
For assay [7], the system named is K562.
Assay [8] concerns MDA-N.
Assay [9] concerns NCI-H522.
Assay [10] deals with OVCAR-3.
Assay [11] has as its system OVCAR-4.
For assay [12], the system named is OVCAR-8.
The subject of assay [13] is PC-3.
In assay [14] the test system is RPMI-8226.
Assay [15] deals with SF-539.
For assay [16], the system named is SNB-19.
In assay [17] the test system is UACC-62.
Assay [18] has as its system HOP-92.
The test system of assay [19] is BT-549.

`O=C(O)c1cc(-c2ccc3c(O)c(O)ccc3c2)ccc1O`: the GI50 in assay [1] is 72.9 µM (inactive); in [2], 66.4 µM (inactive); in [3] it was 4.34 µM (inactive); in assay [4], 12.3 µM (inactive); in assay [5], > 75 µM (inactive); in assay [6] it was 41.3 µM. The GI50 was 13.1 µM (inactive) in assay [7]; 25.2 µM (inactive) in assay [8]; 38.5 µM (inactive) in assay [9]; > 75 µM (inactive) in [10]; 12.9 µM (inactive) in [11]; 23.1 µM (inactive) in [12]. Also, the GI50 was > 75 µM (inactive) in assay [13]; 15.9 µM (inactive) in [14]; > 75 µM (inactive) in [15]; > 75 µM (inactive) in [16]; 27 µM (inactive) in assay [17].

For `CC1(C)CC2(C)OC(=N)C1(C#N)C2(C#N)C#N` (stereo unspecified), the GI50 is 15.2 µM (inactive) in [1]; 23.2 µM (inactive) in [2]; 1.02 µM (active) in [3]; 5.02 µM (inactive) in assay [5]; 2.36 µM in assay [6]; 1.57 µM (inactive) in assay [18]. Besides, the GI50 was 6.93 µM (inactive) in [7]; 7.08 µM (inactive) in assay [8]; 2.44 µM (inactive) in [9]; 18.2 µM (inactive) in [12]; 16.1 µM (inactive) in assay [13]; 5.65 µM (inactive) in assay [14]. For the same compound, the GI50 was 12.1 µM (inactive) in assay [15], 16.2 µM (inactive) in assay [16] and 12.4 µM (inactive) in [17].

`COP(C)(=O)C1=CCN(C(=O)OCC[Si](C)(C)C)CC1` (stereo unspecified): the GI50 is > 100 µM (inactive) in [1]; > 100 µM (inactive) in [2]; > 100 µM (inactive) in [3]; > 100 µM (inactive) in assay [4]; > 100 µM (inactive) in [5]; over 100 µM in [6]. In addition, the GI50 in assay [18], in [8], in [9], in assay [10], in assay [11] and in [12] was > 100 µM (inactive) each time. Further, the GI50 in [13], in [14], in assay [16] and in assay [17] was > 100 µM (inactive) in each case.

For the compound `CC(=O)[C@]1(C)[C@H](C)O[C@](C)(CO)[C@H]1O[Si](C)(C)c1ccccc1`, the GI50 was > 100 µM (inactive) in [1]; 56.6 µM (inactive) in assay [2]; 17.9 µM (inactive) in assay [3]; 28.4 µM (inactive) in assay [4]; 46.3 µM (inactive) in [5]; 23 µM in assay [6]. In addition, the GI50 in assay [18] was 11.2 µM (inactive); in [7], 32.8 µM (inactive); in [8], 54 µM (inactive); in assay [9], 23.2 µM (inactive); in [10] it was 55 µM (inactive); in assay [11], 30.4 µM (inactive). Moreover, the GI50 is 48 µM (inactive) in assay [12]; 45.5 µM (inactive) in [13]; 35.2 µM (inactive) in assay [14]; > 100 µM (inactive) in [15]; > 100 µM (inactive) in assay [16]; 97.9 µM (inactive) in [17].

As to `CC1=NN(C2=NS(=O)(=O)c3ccccc3N2C)C(=O)C1`, the GI50 in assay [1] was 50.8 µM (inactive); in assay [2], > 100 µM (inactive); in assay [19], > 100 µM (inactive); in assay [3], > 100 µM (inactive); in assay [4], > 100 µM (inactive); in [5], > 100 µM (inactive). Moreover, the GI50 in assay [6] is over 100 µM; in [18] it was > 100 µM (inactive); in assay [7], > 100 µM (inactive); in assay [9] it was > 100 µM (inactive); in [10], > 100 µM (inactive); in assay [11], > 100 µM (inactive). Moreover, the GI50 in assay [12], in assay [13], in assay [15], in [16] and in assay [17] was > 100 µM (inactive) each time.

In the case of `CC1CCC(C(C)C2C(O)CC3C4CC=C5CC(O)CCC5(C)C4CCC32C)NC1` (stereo unspecified), the GI50 in assay [1] was > 100 µM (inactive); in assay [2] it was 83 µM (inactive); in assay [19], > 100 µM (inactive); in assay [5], > 100 µM (inactive); in [6], 44 µM; in [18], 23.7 µM (inactive). In addition, the GI50 in [7] was 39.2 µM (inactive); in [9] it was 63 µM (inactive); in assay [11], 20.2 µM (inactive); in [12], 15.9 µM (inactive); in assay [13], 26.9 µM (inactive); in assay [15], 34.2 µM (inactive). The GI50 in assay [16] was 25.7 µM (inactive); in assay [17] it was 49.5 µM (inactive).

For the compound `COc1ccc(-c2ccc(C(=O)C=P(c3ccccc3)(c3ccccc3)c3ccccc3)cc2)cc1`, the GI50 in assay [1] was 12.2 µM (inactive); in [2] it was 6.95 µM (inactive); in assay [3] it was 11.4 µM (inactive); in [4], 5.52 µM (inactive); in [5] it was 6.59 µM (inactive); in assay [6], 8.59 µM. Moreover, the GI50 in [18] was 4.72 µM (inactive); in [7], 5 µM (inactive); in [8], 13.2 µM (inactive); in assay [10], 3.41 µM (inactive); in assay [11] it was 7.96 µM (inactive); in assay [13], 7.55 µM (inactive). Also, the GI50 was 2.12 µM (inactive) in assay [14], 17.7 µM (inactive) in assay [15], 25.6 µM (inactive) in assay [16] and 15.2 µM (inactive) in assay [17].

Consider `O=c1oc2ccccc2c2c1Sc1ccccc1N2`, for which the GI50 in [1] was > 100 µM (inactive); in assay [2] it was > 10 µM (inactive); in assay [19], > 100 µM (inactive); in assay [3], > 100 µM (inactive); in [4], 75.9 µM (inactive); in assay [5], 62.2 µM (inactive). Moreover, the GI50 in [6] was 36.2 µM; in [18], 12.7 µM (inactive); in assay [7], > 100 µM (inactive); in [9], > 100 µM (inactive); in [10], 68.9 µM (inactive); in assay [11], 22.8 µM (inactive). Moreover, the GI50 in assay [12] is > 100 µM (inactive); in [13] it was > 100 µM (inactive); in assay [14] it was 47.2 µM (inactive); in assay [15], > 100 µM (inactive); in assay [16], > 100 µM (inactive); in [17] it was 50.1 µM (inactive).

Turning to `CNc1ccc([S+]([O-])Nc2ccccc2)cc1` (stereo unspecified), the GI50 is 45.6 µM (inactive) in assay [2]; > 100 µM (inactive) in assay [4]; 30.5 µM (inactive) in [5]; 43.9 µM in [6]; 34.8 µM (inactive) in assay [7]; 46.1 µM (inactive) in assay [8]. In addition, the GI50 in assay [9] was 19 µM (inactive); in assay [10] it was 51.4 µM (inactive); in assay [11] it was 94.2 µM (inactive); in assay [12], 56.2 µM (inactive); in assay [14], 39.8 µM (inactive); in [15], > 100 µM (inactive). Also, the GI50 in assay [16] is > 100 µM (inactive); in [17] it was 23.4 µM (inactive).

Consider `COC1(OC)N=C(N)C2(C#N)/C(=N/N(C)C)CC(C)C12C#N` (stereo unspecified), for which the GI50 in assay [1] was > 100 µM (inactive); in assay [2], > 100 µM (inactive); in assay [3] it was > 100 µM (inactive); in assay [4], > 100 µM (inactive); in assay [5] it was > 100 µM (inactive); in [6] it was over 100 µM. Further, the GI50 in assay [18], in assay [7], in assay [8], in [9], in assay [12] and in assay [13] was > 100 µM (inactive) in each case. Also, the GI50 is > 10 µM (inactive) in [14], > 100 µM (inactive) in assay [15], > 100 µM (inactive) in [16] and > 100 µM (inactive) in [17].

Consider `O=C1O/C(=C(/Cl)c2c3ccccc3cc3ccccc23)c2ccccc21`, for which the GI50 in [1] was 27 µM (inactive); in [2], 37.1 µM (inactive); in assay [3], 33.4 µM (inactive); in assay [4], 4 µM (inactive); in [5], 26.4 µM (inactive); in [6] it was 20.6 µM. Also, the GI50 in assay [18] was 21.8 µM (inactive); in assay [7] it was 13.8 µM (inactive); in assay [8] it was 27.4 µM (inactive); in assay [9], 29.8 µM (inactive); in assay [10] it was 20.1 µM (inactive); in [11], 17.2 µM (inactive). The GI50 is 23.4 µM (inactive) in assay [12]; 24.8 µM (inactive) in assay [13]; 20.3 µM (inactive) in assay [14]; 23.6 µM (inactive) in assay [15]; 20.3 µM (inactive) in [16]; 28.6 µM (inactive) in [17].

For `CCCCNC(=S)N/C=C1\C(=O)Nc2ccccc2C1=O`, the GI50 in [1], in assay [2], in [19], in assay [3], in assay [4] and in assay [5] was > 10 µM (inactive) each time. In addition, the GI50 in assay [6] was over 10 µM; in [18], > 10 µM (inactive); in [7], > 10 µM (inactive); in assay [10], > 10 µM (inactive); in [11] it was > 10 µM (inactive); in assay [12], > 10 µM (inactive). Also, the GI50 in [13], in [14], in assay [15], in assay [16] and in [17] was > 10 µM (inactive) in each case.
